Experimental data as given in patent US20240409557A1, “5,6-FUSED AND 6,6-FUSED BICYCLIC ALCOHOLS AND ETHERS AND COMPOSITIONS FOR USE AS 15-PROSTAGLANDIN DEHYDROGENASE MODULATORS” (AMGEN INC., priority 2023, published 2024).

Biological target: T1, human recombinant 15-PGDH (Homo sapiens, UniProt P15428)
T1 sequence (P15428 1-266): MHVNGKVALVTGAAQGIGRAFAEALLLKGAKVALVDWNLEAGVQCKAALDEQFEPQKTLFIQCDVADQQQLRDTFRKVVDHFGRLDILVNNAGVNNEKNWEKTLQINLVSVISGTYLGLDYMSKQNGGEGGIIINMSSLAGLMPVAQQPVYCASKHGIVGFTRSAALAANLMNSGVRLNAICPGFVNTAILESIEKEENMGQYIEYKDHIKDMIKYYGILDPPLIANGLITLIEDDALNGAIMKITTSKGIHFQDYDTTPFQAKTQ
Experiment: Recombinant 15-PGDH enzymatic inhibition assay (PGDH-Lumi, NADH signal)
Type: biochemical
Conditions: recombinant 15-PGDH; 15 min pre-incubation, 60 min reaction with PGE2 and NAD+, NADH signal
Procedure: These assays measured 15-PGDH enzymatic activity by quantifying the amount of NADH produced during a 60-minute reaction initiated by the addition of PGE2 and NAD+. Under the conditions of these experiments, the increase of NADH signal upon oxidation of PGE2 and reduction of NAD+ was linearly proportional to 15-PGDH enzymatic activity. The recombinant human, mouse, rat and dog 15-PGDH enzymatic assays were performed in a 25 μL volume of reaction buffer containing 50 mM Tris, pH 7.5, 0.01% Tween-20 and […] DTT in a 384-well microtiter plate. In concentration-response experiments with tested compounds, 22 concentrations from 2-fold serial dilutions in DMSO were pre-incubated with 15-PGDH for 15 minutes at room temperature. Then, PGE2 and β-NAD+ were added to initiate the 15-PGDH reaction. After 60 minutes at room temperature, the reaction was quenched and NADH signal was measured using a microtiter plate reader.
The following data (Table 27-1) provides the IC50 in μM of each compound for inhibiting enzymatic activity of the recombinant 15-PGDH in the assay described above.

| Compound | IC50 [nM] |
| --- | --- |
| C[C@H](O)c1cc2c(C3CC3)cc(-c3cnc4nn(C)cc4c3)nc2s1 (single isomer, unassigned) [Compound B11S] | 98.1 |
| Cc1cc2[nH]ncc2cc1-c1ccc2cc([C@H](O)C3CCOCC3)sc2n1 (single isomer, unassigned) [Compound B38R] | 93 |
| CC(O)c1cc2c(-c3cnc4nn(C)cc4c3)cc(C3CC3)nc2s1 (centres unmarked) [Compound B12, 1-(6-cyclopropyl-4-(2-methyl-2H-pyrazolo[3,4-b]pyridin-5-yl)thieno[2,3-b]pyridin-2-yl)ethanol] | 57.8 |
| C[C@@H]1CC[C@@]1(O)c1cc2ccc(-c3cnc4nn(C)cc4c3)nc2s1 (single isomer, unassigned) [Compound C64SR] | 466 |
| CCCC(O)c1cc2ccc(-c3cnc4nn(C)cc4c3)cc2s1 (centres unmarked) [Compound B54, 1-(6-(2-methyl-2H-pyrazolo[3,4-b]pyridin-5-yl)-1-benzothiophen-2-yl)-1-butanol] | 9.35 |
| O=C1NCc2cc(-c3ncc4cc([C@]5(O)C[C@@H](C(F)(F)F)C5)sc4n3)cnc21 [Compound C128C, 3-(6-(cis-1-hydroxy-3-(trifluoromethyl)cyclobutyl)thieno[2,3-d]pyrimidin-2-yl)-5,6-dihydro-7H-pyrrolo[3,4-b]pyridin-7-one] | 0.62 |
| Cc1n[nH]c2ccc(-c3ccc4cc([C@@H](O)C5CCOCC5)sc4n3)cc12 (single isomer, unassigned) [Compound B40S] | 3400 |
| Cn1cc2cc(-c3ccc4cc([C@@H](CO)C5CC(F)(F)C5)sc4n3)cnc2n1 (single isomer, unassigned) [Compound B80R] | 46.7 |
| Cn1nccc1-c1cc(-c2ccnn2C)c2cc(C(O)C3CCC3)sc2n1 (centres unmarked) [Compound B1, (4,6-bis(1-methyl-1H-pyrazol-5-yl)thieno[2,3-b]pyridin-2-yl)(cyclobutyl)methanol] | 58.6 |
| COCc1cc2c(C3CCC3)cc(-c3cnc4nn(C)cc4c3)nc2s1 [Compound A3, 5-(4-cyclobutyl-2-(methoxymethyl)thieno[2,3-b]pyridin-6-yl)-2-methyl-2H-pyrazolo[3,4-b]pyridine] | 671 |
| O[C@H](c1cc2ccc(-c3cncnc3)nc2s1)C1CC(F)(F)C1 (single isomer, unassigned) [Compound B57S] | 13.2 |

Now from value to compound:

| IC50 [nM] | Compound |
| --- | --- |
| 230 | Cn1cc2cc(-c3cc(-c4ccnn4C)c4cc(C(O)(C5CCC5)C(F)(F)F)sc4n3)cnc2n1 (centres unmarked) [Compound C24, 1-cyclobutyl-2,2,2-trifluoro-1-(6-(2-methyl-2H-pyrazolo[3,4-b]pyridin-5-yl)-4-(1-methyl-1H-pyrazol-5-yl)thieno[2,3-b]pyridin-2-yl)ethanol] |
| 1800 | CN1CCC(O)(c2cc3ccc(-c4cnc5nn(C)cc5c4)nc3s2)C1 (centres unmarked) [Compound C4, 1-methyl-3-(6-(2-methyl-2H-pyrazolo[3,4-b]pyridin-5-yl)thieno[2,3-b]pyridin-2-yl)-3-pyrrolidinol] |
| 7.27 | CN1CC(O)(c2cc3ccc(-c4cnc5nn(C)cc5c4)nc3s2)C1 [Compound C12, 1-methyl-3-(6-(2-methyl-2H-pyrazolo[3,4-b]pyridin-5-yl)thieno[2,3-b]pyridin-2-yl)-3-azetidinol] |
| 67.7 | Cn1cc2cc(-c3ccc4cc(C5(O)CCS(=O)(=O)CC5)sc4n3)cnc2n1 [Compound C8, 4-(6-(2-methyl-2H-pyrazolo[3,4-b]pyridin-5-yl)thieno[2,3-b]pyridin-2-yl)tetrahydro-2H-thiopyran-4-ol 1,1-dioxide] |
| 12.9 | Cn1cc2cc(-c3ccc4cc(C5(O)COC5)sc4n3)cnc2n1 [Compound C18, 3-(6-(2-methyl-2H-pyrazolo[3,4-b]pyridin-5-yl)thieno[2,3-b]pyridin-2-yl)-3-oxetanol] |
| 544 | COCC(C)(O)c1cc2ccc(-c3cnc4nn(C)cc4c3)nc2s1 (centres unmarked) [Compound C6, 1-methoxy-2-(6-(2-methyl-2H-pyrazolo[3,4-b]pyridin-5-yl)thieno[2,3-b]pyridin-2-yl)-2-propanol] |
